This is an account of results in ChEMBL document CHEMBL1122965, “The pKa of butaclamol and the mode of butaclamol binding to central dopamine receptors” (J Med Chem, 1985).

This assay deals with Dopamine receptor (Homo sapiens) (UniProt P14416+P35462+P21918+P21917+P21728).

Description: Compound was evaluated for its binding affinity towards Dopamine receptor

Compound `CC(C)(C)[C@]1(O)CCN2C[C@@H](c3ccccc3)c3ccccc3[C@@H]2C1` yielded a pKa of 7.03.
In the case of `c1ccc([C@H]2CN3CCC[C@H]3c3ccccc32)cc1`, the pKa amounted to 9.12.
